Test results: publication PMC9372051, “Biological evaluation, molecular modeling and dynamics simulation of phenanthrenes isolated from Bletilla striata as butyrylcholinesterase inhibitors” (Scientific Reports, 2022)
Read-outs that look alike come from different tables or passages of the source.

Tests used:
AChE from electric eel = AChE from electric eel (Electrophorus electricus, UniProt O42275); assay: biochemical; conditions: read-out: % of inhibition at 25 μg/mL AChE
BChE from equine serum = BChE from equine serum (Equus caballus, UniProt P81908); assay: biochemical; assay type: biochemical; conditions: for inhibition at 25 µg/mL: read-out: % of inhibition at 25 μg/mL BChE; for BChE inhibition described in words: structure-activity discussion
Sequence of BChE from equine serum (P81908 whole entry): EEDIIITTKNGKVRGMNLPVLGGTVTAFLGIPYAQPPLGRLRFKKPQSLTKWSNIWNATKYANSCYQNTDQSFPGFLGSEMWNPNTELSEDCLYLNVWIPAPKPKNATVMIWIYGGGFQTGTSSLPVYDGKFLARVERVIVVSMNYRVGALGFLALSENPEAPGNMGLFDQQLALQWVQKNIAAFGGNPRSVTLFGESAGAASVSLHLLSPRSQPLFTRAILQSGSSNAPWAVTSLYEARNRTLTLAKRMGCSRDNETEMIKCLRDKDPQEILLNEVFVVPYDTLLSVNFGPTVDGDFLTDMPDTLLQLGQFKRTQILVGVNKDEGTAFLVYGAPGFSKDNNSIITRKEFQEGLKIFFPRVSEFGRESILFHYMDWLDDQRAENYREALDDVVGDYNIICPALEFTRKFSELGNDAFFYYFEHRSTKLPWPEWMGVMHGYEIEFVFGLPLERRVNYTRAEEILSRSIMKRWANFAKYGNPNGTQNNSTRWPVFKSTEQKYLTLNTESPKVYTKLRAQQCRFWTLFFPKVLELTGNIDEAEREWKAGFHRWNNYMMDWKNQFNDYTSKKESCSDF

BChE = BChE (Equus caballus, UniProt P81908); assay: Kinetic characterization of BChE inhibition (Lineweaver–Burk plots, secondary plots); assay type: biochemical, equine; conditions: for Mode of BChE inhibition: Lineweaver–Burk plots; for Ki: estimated by secondary plots of Lineweaver–Burk plots, substrate BTCI
Sequence of BChE (P81908 whole entry): as above
Experimental: […]. Five increasing concentrations of BTCI as a substrate in the presence of three different concentrations of compound were used in the kinetic measurement. The concentrations of the enzyme and DNTB used in the determination are 0.226 U/mL and 3 mM respectively. The inhibition constants (Ki) of the inhibitors were determined by the secondary plots which constructed using the slopes of the Lineweaver–Burk plots.

Sequence of AChE from electric eel (O42275 24-633): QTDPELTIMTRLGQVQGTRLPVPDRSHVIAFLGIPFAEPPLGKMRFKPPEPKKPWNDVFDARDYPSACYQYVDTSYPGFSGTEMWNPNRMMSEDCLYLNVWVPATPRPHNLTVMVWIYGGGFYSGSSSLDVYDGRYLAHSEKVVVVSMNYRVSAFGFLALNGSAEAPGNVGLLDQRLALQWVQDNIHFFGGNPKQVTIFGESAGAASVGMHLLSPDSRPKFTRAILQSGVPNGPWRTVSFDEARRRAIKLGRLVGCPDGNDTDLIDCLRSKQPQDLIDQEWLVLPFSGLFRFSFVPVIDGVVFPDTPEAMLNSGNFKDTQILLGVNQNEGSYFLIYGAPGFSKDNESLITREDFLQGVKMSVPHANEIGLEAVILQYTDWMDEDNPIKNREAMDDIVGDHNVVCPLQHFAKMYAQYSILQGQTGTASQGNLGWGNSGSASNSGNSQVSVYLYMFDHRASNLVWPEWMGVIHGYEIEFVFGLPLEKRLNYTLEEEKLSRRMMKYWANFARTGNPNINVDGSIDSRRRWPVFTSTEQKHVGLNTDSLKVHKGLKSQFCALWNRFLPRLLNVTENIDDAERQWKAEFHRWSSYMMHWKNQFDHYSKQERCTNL

SMILES | inhibition at 25 µg/mL (AChE from electric eel) [%] | Selectivity ratio (BChE from equine serum) | IC50 (BChE from equine serum; mean ± SD of three experiments) [µM] | inhibition at 25 µg/mL (BChE from equine serum) [%] | Mode of BChE inhibition (BChE) | Ki (BChE) [µM] | inhibition at 25 µg/mL (BChE from equine serum; 25 μg/mL final concentration, mean ± SD of three experiments) [%] | BChE inhibition described in words (BChE from equine serum)
COc1cccc(CCc2cc(OC)cc(O)c2Cc2ccc(O)cc2)c1 [Compound 1, gymconopin D] | 48.1 ± 6.3 | > 1.7 | 40.5 ± 5.6 | 66.2 ± 3.4 |  |  |  | 
COc1cccc(CCc2cc(O)cc(OC)c2Cc2ccc(O)cc2)c1 [Compound 2, bulbocol] | 16.3 ± 3.8 | > 2.1 | 33.5 ± 3.7 | 67.7 ± 0.3 |  |  |  | 
COc1cc(O)cc(CCc2cccc(O)c2)c1Cc1ccc(O)cc1 [Compound 3, 3′,5-dihydroxy-2-(4-hydroxybenzyl)-3-methoxybibenzyl] | 5 ± 1.5 |  | 80.3 ± 5.2 | 51.3 ± 2 |  |  |  | 
COc1cc(O)c(Cc2ccc(O)cc2)c(CCc2cccc(O)c2)c1 [Compound 4, isoarundinin II] | 0.9 ± 0.8 |  |  | 39.3 ± 2.3 |  |  |  | 
COc1cc(CCc2cccc(O)c2)cc(O)c1Cc1ccc(O)cc1 [Compound 5, 3,3′-dihydroxy-4-(4-hydroxybenzyl)-5-methoxybibenzyl] | 2.6 ± 2.8 |  |  | 22.6 ± 2.1 |  |  |  | 
COc1ccc2c(ccc3c(Cc4ccc(O)cc4)c(O)cc(OC)c32)c1O [Compound 6, 1-(p-hydroxybenzyl)-4,7-dimethoxyphenanthrene-2,8-diol] | 20.4 ± 4.5 | > 9.5 | 6.4 ± 0.2 | 85.2 ± 2.9 | mixed-type | 14 |  | 
COc1c(Cc2ccc(O)cc2)c(O)cc2c1-c1ccc(O)cc1CC2 [Compound 7, 3-(4-hydroxybenzyl)-4-methoxy-9,10-dihydrophenanthrene-2,7-diol] | 9.6 ± 2.6 | > 2.1 | 34 ± 1.4 | 65.7 ± 0.7 |  |  |  | 
COc1c(O)cc2ccc3c(Cc4ccc(O)cc4)c(O)ccc3c2c1OC [Compound 8, bleformin A] | 18.5 ± 1.7 | > 13.1 | 5.2 ± 0.4 | 70 ± 1 | mixed-type | 4.7 |  | 
COc1cc(O)c2c(c1Cc1ccc(O)cc1)CCc1cc(O)ccc1-2 [Compound 9, shancidin] | 15.2 ± 3.6 | > 4.3 | 16.7 ± 2 | 72.8 ± 3.4 |  |  |  | 
COc1cc(O)c(Cc2ccc(O)cc2)c2ccc3cc(O)ccc3c12 [Compound 10, 1-[(4-hydroxyphenyl)methyl]-4-methoxy-2,7-phenanthrenediol] | 19.1 ± 3.8 | > 34.7 | 2.1 ± 0.3 | 96.6 ± 1.2 | non-competitive | 5.4 |  | 
COc1c(Cc2ccc(O)cc2)c(O)c(Cc2ccc(O)cc2)c2c1-c1ccc(O)cc1CC2 [Compound 11, 2,7-dihydroxy-1,3-bi(p-hydroxybenzyl)-4-methoxy-9,10-dihydrophenanthrene] | 20.1 ± 3.5 | > 1.2 | 44.6 ± 4.1 | 53.1 ± 1.2 |  |  |  | 
COc1cc(O)c(Cc2ccc(O)cc2)c2ccc3c(Cc4ccc(O)cc4)c(O)ccc3c12 [Compound 12, 1,8-bis(4-hydroxybenzyl)-4-methoxyphenanthrene-2,7-diol] | 16.1 ± 5 | > 23.1 | 2.3 ± 0.4 | 95.4 ± 0.3 | non-competitive | 6.6 |  | 
COc1c(O)c(Cc2ccc(O)cc2)c2ccc3cc(O)ccc3c2c1OC [Compound 13, bleformin B] | 9.9 ± 4.7 | > 4.0 | 16.7 ± 2.4 | 75.7 ± 1.1 |  |  |  | 
COc1cc(O)cc2c1-c1ccc(Oc3c(O)cc(OC)c4c3ccc3cc(O)ccc34)cc1CC2 [Compound 14, blestrin D] | 6.8 ± 1.6 | > 6.8 | 8.1 ± 0.5 |  | mixed-type | 10.9 | 69 ± 2.5 | 
COc1cc(Oc2c(O)cc(OC)c3c2CCc2cc(O)ccc2-3)cc2c1-c1ccc(O)cc1CC2 [Compound 15, blestrin A] | 8.4 ± 3.1 | > 2.9 | 17.9 ± 4.7 | 64 ± 2.6 |  |  |  | 
COc1cc(Oc2c(O)cc(OC)c3c2ccc2cc(O)ccc23)cc2c1-c1ccc(O)cc1CC2 [Compound 16, blestrin C] | 4.9 ± 3.2 | > 4.3 | 12.1 ± 3.4 | 64.3 ± 2.4 |  |  |  | 
COc1cc(C2COc3cc(OC)c4c(c3C2O)CCc2cc(O)ccc2-4)ccc1O (stereo not shown) [Compound 17, shanciol F] | 5.5 ± 1.8 |  |  | 21.8 ± 3.1 |  |  |  | 
COc1cc([C@@H]2Oc3cc4c(cc3[C@H]2CO)-c2c(cc(O)cc2OC)CC4)ccc1O [Compound 18, bletilol D] | 5.7 ± 2.8 |  |  | 31.6 ± 2.8 |  |  |  | 
COc1cc(C2Oc3cc4c(c(OC)c3C2CO)-c2ccc(O)cc2CC4)ccc1O (stereo not shown) [Compound 19, 9-(4′-hydroxy-3′-methoxyphenyl)-10-(hydroxymethyl)-11-methoxy-5,6,9, 10-tetrahydrophenanthro[2,3-b] furan-3-ol] | 3.3 ± 1.8 | > 1.7 | 35.8 ± 9.2 | 61.2 ± 1.3 |  |  |  | 
COc1cc([C@@H]2Oc3cc(OC)c4c(c3[C@H]2Cc2c(O)cc(OC)c3c2CCc2cc(O)ccc2-3)CCc2cc(O)ccc2-4)ccc1O [Compound 20, Bletilol E] | 5.1 ± 4 |  |  | 8 ± 2.4 |  |  |  | weak inhibition potency
COc1cc(O)cc(/C=C\c2cccc(O)c2)c1 [Compound 21, pholidotol D] | 5.2 ± 3.2 |  |  | 29.1 ± 1.3 |  |  |  | 
COc1cc(O)c(-c2c(O)cc(OC)c3c2CCc2cc(O)ccc2-3)c2c1-c1ccc(O)cc1CC2 [Compound 22, flavanthrin] | 13.3 ± 2.9 | > 1.2 | 42.2 ± 5.1 | 56.7 ± 2 |  |  |  | moderate efficacy
COc1ccc2c3c1O[C@H]1C[C@@H](O)C=C[C@@]31CCN(C)C2 [Galantamine, reference compound] |  |  |  | 64.2 ± 0.6 |  |  |  | 
